Values of other authors as cited in patent publication US7029703B2, “Composition for promoting healthy bone structure” (Metagenics, Inc., priority 1999, dated 2006).

Assays:
[1] = postmenopausal osteoporosis
[2] = 600 mg ipriflavone/day along with 1 gram calcium
[3] = in animals and in humans
[4] = clinical trials; consumption data of up to 2 years
osteoblast-like cells = settings: in vitro

| SMILES | rate of bone loss [1] | Urinary hydroxyproline/creatinine (HOP/Cr) [2] | serum osteocalcin (BGP) [2] | increase in BMD at the distal radius (DPA) ([2]; 28 osteoporotic elderly women, P<0.05) [%] | Bone pain (during the 1200/600 mg sequence of ipriflavone) | Serum alkaline phosphatase (ALP) decrease (following the 1200/600 mg ipriflavone sequence, P<0.01) [%] | hydroxy proline/creatinine (HOP/Cr) decrease (following the 1200/600 mg ipriflavone sequence, P<0.05) [%] | estrogenic activity [3] | frequency of adverse reactions [4] | alkaline phosphatase activity (osteoblast-like cells) | collagen synthesis (osteoblast-like cells) |
| --- | --- | --- | --- | --- | --- | --- | --- | --- | --- | --- | --- |
| O=C([O-])[O-].[Ca+2] [calcium carbonate] | reduced the rate of bone loss by about half | – | – | – | – | – | – | – | – | – | – |
| CC(C)Oc1ccc2c(=O)c(-c3ccccc3)coc2c1 [ipriflavone, 7-isopropoxyisoflavone] | – | reduced | reduced | 6 | significantly decreased | 33 | 24.1 | devoid of any estrogenic activity | equal to that observed during administration of a placebo | increases | increases |
